Experimental data taken from PMC7317212 (Chemmedchem, 2020).

Experiments:
mGAT1 [1] = molecular target: T1, mGAT1 (Mus musculus, UniProt P31648); test: [^3H]GABA uptake assay, HEK293 cells expressing mGAT1; format: cell-based; conditions: for remaining activity at 100 µM: HEK293, in presence of 100 μM compound; for IC50: [^3H]GABA uptake, pIC50±SEM
T1 construct: expressed in transfected cells; host or cells: HEK293
Method in brief: (§1)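 HEK293 cells expressing mouse GATs preincubated 25 min at 37 °C with compound in Krebs buffer pH 7.2, then [3H]GABA added: 8 nM plus 32 nM unlabeled for 4 min (mGAT1/3/4), 20 nM plus 20 nM for 10 min (mGAT2). Filtration, scintillation counting; nonspecific uptake with 10 mM (mGAT1/3/4) or 100 mM GABA (mGAT2); pIC50.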

mGAT4 [2] = molecular target: T2, mGAT4 (Mus musculus, UniProt P31650); test: [^3H]GABA uptake assay, HEK293 cells expressing mGAT4; format: cell-based; conditions: for remaining activity at 100 µM: HEK293, in presence of 100 μM compound; for IC50: [^3H]GABA uptake, pIC50±SEM
T2 construct: expressed in transfected cells; host or cells: HEK293
T2 sequence (P31650 1-627): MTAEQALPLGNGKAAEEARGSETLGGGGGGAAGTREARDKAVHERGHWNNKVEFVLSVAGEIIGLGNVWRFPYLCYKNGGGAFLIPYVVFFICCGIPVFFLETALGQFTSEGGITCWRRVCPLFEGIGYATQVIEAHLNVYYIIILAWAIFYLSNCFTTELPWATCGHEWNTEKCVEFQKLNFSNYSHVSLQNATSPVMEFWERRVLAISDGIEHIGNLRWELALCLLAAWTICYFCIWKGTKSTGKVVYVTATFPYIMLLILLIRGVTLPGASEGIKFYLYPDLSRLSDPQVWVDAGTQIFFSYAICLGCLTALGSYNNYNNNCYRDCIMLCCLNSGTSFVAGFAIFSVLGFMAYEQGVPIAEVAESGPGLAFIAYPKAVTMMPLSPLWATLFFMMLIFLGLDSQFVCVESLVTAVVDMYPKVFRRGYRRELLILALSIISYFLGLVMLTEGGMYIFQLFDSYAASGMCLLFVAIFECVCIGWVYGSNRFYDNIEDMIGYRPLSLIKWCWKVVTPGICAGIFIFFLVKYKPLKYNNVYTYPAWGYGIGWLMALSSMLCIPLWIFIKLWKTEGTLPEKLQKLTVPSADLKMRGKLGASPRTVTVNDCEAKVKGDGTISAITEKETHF
Method in brief: as §1

mGAT3 [3] = molecular target: T3, mGAT3 (Mus musculus, UniProt P31649); test: [^3H]GABA uptake assay, HEK293 cells expressing mGAT3; format: cell-based; conditions: for remaining activity at 100 µM: HEK293, in presence of 100 μM compound; for IC50: [^3H]GABA uptake, pIC50±SEM
T3 construct: expressed in transfected cells; host or cells: HEK293
T3 sequence (P31649 1-602): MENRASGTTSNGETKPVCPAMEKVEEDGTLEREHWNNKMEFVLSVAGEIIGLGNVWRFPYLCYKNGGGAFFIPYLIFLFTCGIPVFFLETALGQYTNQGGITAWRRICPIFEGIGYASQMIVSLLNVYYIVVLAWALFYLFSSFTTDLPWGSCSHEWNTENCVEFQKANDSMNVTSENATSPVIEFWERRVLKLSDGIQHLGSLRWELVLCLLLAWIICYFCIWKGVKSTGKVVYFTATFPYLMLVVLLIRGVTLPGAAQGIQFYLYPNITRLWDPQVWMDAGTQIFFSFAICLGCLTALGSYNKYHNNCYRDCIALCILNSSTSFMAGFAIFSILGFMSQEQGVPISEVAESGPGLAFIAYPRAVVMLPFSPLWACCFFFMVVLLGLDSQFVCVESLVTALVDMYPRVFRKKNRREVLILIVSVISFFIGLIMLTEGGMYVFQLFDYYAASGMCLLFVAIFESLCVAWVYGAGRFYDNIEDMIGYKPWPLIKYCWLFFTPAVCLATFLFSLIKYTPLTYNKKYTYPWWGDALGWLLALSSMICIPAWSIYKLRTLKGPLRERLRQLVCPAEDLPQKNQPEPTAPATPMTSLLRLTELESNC
Method in brief: as §1

mGAT2 [4] = molecular target: T4, mGAT2 (Mus musculus, UniProt P31651); test: [^3H]GABA uptake assay, HEK293 cells expressing mGAT2; format: cell-based; conditions: for remaining activity at 100 µM: HEK293, in presence of 100 μM compound
T4 construct: expressed in transfected cells; host or cells: HEK293
T4 sequence (P31651 1-614): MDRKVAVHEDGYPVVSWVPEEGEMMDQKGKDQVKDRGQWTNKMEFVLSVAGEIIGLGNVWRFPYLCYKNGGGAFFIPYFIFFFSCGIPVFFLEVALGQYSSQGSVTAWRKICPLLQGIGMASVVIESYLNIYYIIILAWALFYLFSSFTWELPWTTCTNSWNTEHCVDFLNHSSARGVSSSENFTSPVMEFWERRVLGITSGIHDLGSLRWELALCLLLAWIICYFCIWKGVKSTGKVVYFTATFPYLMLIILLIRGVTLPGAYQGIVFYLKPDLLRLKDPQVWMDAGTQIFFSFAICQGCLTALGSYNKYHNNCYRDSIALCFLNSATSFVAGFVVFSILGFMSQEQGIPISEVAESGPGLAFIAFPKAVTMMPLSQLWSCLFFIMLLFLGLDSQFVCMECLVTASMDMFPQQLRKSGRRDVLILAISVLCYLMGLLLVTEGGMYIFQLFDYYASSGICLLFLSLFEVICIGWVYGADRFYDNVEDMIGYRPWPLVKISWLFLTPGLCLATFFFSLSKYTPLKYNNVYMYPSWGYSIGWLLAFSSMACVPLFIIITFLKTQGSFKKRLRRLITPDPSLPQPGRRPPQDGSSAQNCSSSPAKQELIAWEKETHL
Method in brief: as §1

mGAT1 [5] = molecular target: T1, mGAT1; test: MS Binding Assay with NO711 as native MS marker; conditions: for remaining activity at 100 µM: in presence of 100 μM compound, read-out: remaining specific NO711 binding (mGAT1)
Method in brief: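 Competitive MS binding using membranes from HEK293 cells stably expressing mGAT1, with 10 nM unlabeled NO711 as marker and compounds at 7 concentrations. Nonspecific binding defined with 100 mM GABA. Bound NO711 eluted after filtration and quantified by LC-ESI-MS/MS against [2H10]NO711; Ki derived.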

mGAT2 [6] = molecular target: T4, mGAT2; conditions: cited from earlier work; for remaining [^3H]GABA uptake mGAT2: in presence of 100 μM compound
mGAT4 [7] = molecular target: T2, mGAT4; test: GABA uptake inhibition at mGAT4 with varied preincubation time; format: cell-based
mGAT3 [8] = molecular target: T3, mGAT3; conditions: cited from earlier work
mGAT4 [9] = molecular target: T2, mGAT4; conditions: in presence of 100 μM compound; cited from earlier work

CCOC(=O)C1CCCN(CCCC(O)(c2ccc(OC)cc2)c2ccc(OC)cc2)C1 (racemic) [12 l, rac ‐Ethyl 1‐[4‐hydroxy‐4,4‐bis(4‐methoxyphenyl)butyl]piperidine‐3‐carboxylate]
remaining activity at 100 µM (mGAT1 [1]): 79.3% | remaining activity at 100 µM (mGAT4 [2]): 73.8% | remaining activity at 100 µM (mGAT3 [3]): 65% | remaining activity at 100 µM (mGAT2 [4]): 70.4% | remaining activity at 100 µM (mGAT1 [5]): 104%

CCOC(=O)C1CCCN(CCOC(c2ccc(CO)cc2)(c2ccc(OC)cc2)c2ccc(OC)cc2)C1 (racemic) [12 m, rac ‐Ethyl 1‐(2‐{[4‐(hydroxymethyl)phenyl]bis[4‐methoxyphenyl]methoxy}‐ethyl)piperidine‐3‐carboxylate]
remaining activity at 100 µM (mGAT1 [1]): 50.4% | IC50 (mGAT4 [2]): 58.9 µM | IC50 (mGAT3 [3]): 35.5 µM | remaining activity at 100 µM (mGAT2 [4]): 49.3% | remaining activity at 100 µM (mGAT1 [5]): 75.3%

CCOC(=O)CCNCc1ccc(C(OCCN2CCCC(C(=O)OCC)C2)(c2ccc(OC)cc2)c2ccc(OC)cc2)cc1 (racemic) [12 o, rac ‐Ethyl 1‐{2‐[(4‐{[(3‐ethoxy‐3‐oxopropyl)amino]methyl}phenyl)bis(4‐methoxyphenyl)methoxy]ethyl}piperidine‐3‐carboxylate]
IC50 (mGAT1 [1]): 25.7 µM | IC50 (mGAT4 [2]): 21.9 µM | IC50 (mGAT3 [3]): 23.4 µM | IC50 (mGAT2 [4]; [^3H]GABA uptake, pIC50±SEM): 19.1 µM | remaining activity at 100 µM (mGAT1 [5]): 72.4%

CCOC(=O)C1CCCN(CCOC(c2ccc(CNC3(C(=O)OCC)CC3)cc2)(c2ccc(OC)cc2)c2ccc(OC)cc2)C1 (racemic) [12 p, rac‐ Ethyl 1‐(2‐{[4‐({[1‐(ethoxycarbonyl)cyclopropyl]amino}methyl)‐phenyl]bis[4‐methoxyphenyl]methoxy}ethyl)piperidine‐3‐carboxylate]
remaining activity at 100 µM (mGAT1 [1]): 75.5% | remaining activity at 100 µM (mGAT4 [2]): 66.1% | remaining activity at 100 µM (mGAT3 [3]): 58.8% | remaining activity at 100 µM (mGAT2 [4]): 103% | remaining activity at 100 µM (mGAT1 [5]): 95.8%

CCOC(=O)C1CCCN(CCOC(c2ccc(CNC(C)(C)C(=O)OCC)cc2)(c2ccc(OC)cc2)c2ccc(OC)cc2)C1 (racemic) [12 q, rac‐ Ethyl 1‐{2‐[(4‐{[(1‐ethoxy‐2‐methyl‐1‐oxopropan‐2‐yl)amino]methyl}‐phenyl)bis(4‐methoxyphenyl)methoxy]ethyl}piperidine‐3‐carboxylate]
remaining activity at 100 µM (mGAT1 [1]): 66.9% | remaining activity at 100 µM (mGAT4 [2]): 57.4% | remaining activity at 100 µM (mGAT3 [3]): 49.3% | remaining activity at 100 µM (mGAT2 [4]): 67.4% | remaining activity at 100 µM (mGAT1 [5]): 90.9%

CCOC(=O)C1CCCN(CCOC(c2ccc(CNCCCC(=O)O)cc2)(c2ccc(OC)cc2)c2ccc(OC)cc2)C1 (racemic) [12 s, rac ‐4‐{[4‐({2‐[3‐(Ethoxycarbonyl)piperidin‐1‐yl]ethoxy}bis{4‐methoxy‐phenyl}methyl)benzyl]amino}butanoic acid]
remaining activity at 100 µM (mGAT1 [1]): 52.4% | remaining activity at 100 µM (mGAT4 [2]): 67.6% | remaining activity at 100 µM (mGAT3 [3]): 59.3% | remaining activity at 100 µM (mGAT2 [4]): 76.7% | remaining activity at 100 µM (mGAT1 [5]): 84.9%

CCOC(=O)C1CCCN(CCOC(c2ccc(CNc3ccc(C(=O)O)cc3)cc2)(c2ccc(OC)cc2)c2ccc(OC)cc2)C1 (racemic) [12 t, rac‐ 4‐{[4‐({2‐[3‐(Ethoxycarbonyl)piperidin‐1‐yl]ethoxy}bis{4‐methoxy‐phenyl}methyl)benzyl]amino}benzoic acid]
remaining activity at 100 µM (mGAT1 [1]): 52.3% | remaining activity at 100 µM (mGAT4 [2]): 63.9% | remaining activity at 100 µM (mGAT3 [3]): 49.7% | remaining activity at 100 µM (mGAT2 [4]): 73.5% | remaining activity at 100 µM (mGAT1 [5]): 102%

COc1ccc(C(OCCN2CCC[C@@H](C(=O)O)C2)(c2ccc(C=O)cc2)c2ccc(OC)cc2)cc1 [(R)‐5 a]
IC50 (mGAT1 [1]): 35.5 µM | IC50 (mGAT4 [2]): 13.8 µM | IC50 (mGAT3 [3]): 33.9 µM | remaining activity at 100 µM (mGAT2 [4]): 50.1% | Ki (mGAT1 [5]; MS Binding Assay, NO711 marker, pKi±SEM, read-out: pK i mGAT1 (converted)): 12.3 µM

COc1ccc(C(OCCN2CCC[C@H](C(=O)O)C2)(c2ccc(C=O)cc2)c2ccc(OC)cc2)cc1 [(S)‐5 a, (S)‐1‐{2‐[(4‐Formylphenyl)bis(4‐methoxyphenyl)methoxy]ethyl}piper‐idine‐3‐carboxylic acid]
IC50 (mGAT1 [1]): 72.4 µM | IC50 (mGAT4 [2]): 1.29 µM | IC50 (mGAT3 [3]): 6.92 µM | remaining activity at 100 µM (mGAT2 [4]): 72.6% | remaining activity at 100 µM (mGAT1 [5]): 77.4%

COc1ccc(C(OCCN2CCC[C@H](C(=O)O)C2)(c2ccc(OC)cc2)c2ccc(OC)cc2)cc1 [(S)‐SNAP‐5114, reference compound]
remaining [^3H]GABA uptake mGAT2 (mGAT2 [6]): 56% | Normalized pIC50 mGAT4 (mGAT4 [7]; preincubation time 10 min, experiments 1-3, relative to 25 min = 100.00): 97.20 | Normalized pIC50 mGAT4 (mGAT4 [7]; preincubation time 25 min, experiments 1-3 (reference)): 100.00 | Normalized pIC50 mGAT4 (mGAT4 [7]; preincubation time 25 min, experiments 4-6 (reference)): 100.00 | Normalized pIC50 mGAT4 (mGAT4 [7]; preincubation time 60 min, experiments 1-3, relative to 25 min = 100.00): 101.23 | Normalized pIC50 mGAT4 (mGAT4 [7]; preincubation time 60 min, experiments 4-6, relative to 25 min = 100.00): 103.79

COc1ccc(C(OCCN2CCC[C@H](C(=O)O)C2)(c2ccc(OC)cc2)c2ccc(OC)cc2C)cc1 [DDPM‐859]
pIC50 mGAT3 (mGAT3 [8]; [^3H]GABA uptake, pIC50±SEM): 4.85±0.04 | pIC50 mGAT2 (mGAT2 [6]; [^3H]GABA uptake, pIC50±SEM): 4.12±0.08

Cc1ccsc1C(=CCCN1CCC[C@@H](C(=O)O)C1)c1sccc1C [Tiagabine]
remaining [^3H]GABA uptake mGAT3 (mGAT3 [8]; in presence of 100 μM compound): 64% | remaining [^3H]GABA uptake mGAT4 (mGAT4 [9]): 73% | remaining [^3H]GABA uptake mGAT2 (mGAT2 [6]): 50%
